As a reminder, the IC50 is the concentration needed to halve the response being measured. High values mean weaker potency, low ones greater potency. The term inhibition denotes the relative decrease from the control value, in per cent. Low readings indicate a response near the control, high ones a response far below the control. What is called pA2 is the negative logarithm of the molar antagonist concentration that doubles the agonist concentration needed for the same response.

Each structure is given as a SMILES string. A value given as a limit tells only on which side of the number the result lay.

The values that follow come from ChEMBL document CHEMBL1128237, “6-(4-pyridinyl)-1H-1,2,3-triazolo[4,5-d]-pyrimidin-4(5H)-one: a structurally novel competitive AMPA receptor antagonist” (J Med Chem, 1995).

For assay [1], the target named is T1, Glutamate receptor ionotropic AMPA (Homo sapiens, UniProt P42261+P42262+P42263+P48058). Description: (§1) Inhibition of Ionotropic glutamate receptor AMPA binding to human hippocampal homogenates at concentration of 5-7 uM. Type of assay: tissue-based, Hippocampus.
Assay [2] addresses T1, Glutamate receptor ionotropic AMPA. As to the kind of experiment: Inhibition of Ionotropic glutamate receptor AMPA binding to human hippocampal homogenates. Type of assay: tissue-based, Hippocampus.
A short description of assay [3]: Inhibition of [3H]-CGS 19755 binding to NMDA receptor at a concentration of 10 uM.
Assay [4] is described as follows: Inhibition of [3H]-kainic acid binding to kainate receptor at a concentration of 10 uM.
Assay [5] concerns the target Glutamate receptor ionotropic AMPA (Homo sapiens) (UniProt P48058+P42263+P42262+P42261). The description is as §1. It counts as tissue-based. Conditions: Hippocampus.
Assay [6] in a line: Ability to antagonize AMPA-induced responses in frog oocytes. Type of assay: functional, cell-based. To be noted: oocyte.
The nature of assay [7]: Ability to antagonize kainate-induced responses in frog oocyte. Type of assay: functional.

`O=c1[nH]c2cc([N+](=O)[O-])c([N+](=O)[O-])cc2[nH]c1=O` [DNQX] gave a half-inhibitory concentration (IC50) in assay [1] of 0.28 µM. In turn, `Oc1nc(-c2ccncc2)nc2c1ncn2C1CCCC1` displayed a half-maximal inhibitory concentration (IC50) in assay [2] of 2.1 µM. For the same compound, the inhibition at 10 µM in assay [3] came to 25%; in assay [4] it was 15%. Regarding `Oc1nc(-c2ccncc2)nc2c(C3CCCC3)n[nH]c12`, the inhibition in assay [5] is under 5%. On to `O=c1[nH]c(-c2ccncc2)nc2c1cnn2C1CCCC1`, for which the inhibition in assay [5] was under 5%. Same read-out and setting: as for `Nc1[nH]c(-c2ccncc2)nc2nnnc1-2`, the figure is under 5%. Consider `Oc1[nH]c(-c2ccncc2)nc2nnnc1-2`, for which the pA2 in assay [6] amounted to 6.08; in assay [7], 6.2. In assay [1], the 50% inhibitory concentration (IC50) turned out to be 1.8 µM. The inhibition at 10 µM in assay [3] is 17%; in assay [4], 37%. Take `Cc1nc(O)c2c[nH]nc2n1`: the inhibition in assay [5] was under 5%. Consider `Oc1[nH]c(-c2ccncc2)nc2ncnc1-2`, for which the IC50 in assay [2] was determined as 1.9 µM.

`Nc1[nH]c(-c2ccncc2)nc2ncnc1-2` gave an inhibition in assay [5] of under 5%.
